Experimental data published in US9499554B2, “Anti-influenza compositions and methods” (priority 2013, dated 2016).
Values after ≈ are worked out from the molar mass of the structure shown. Like-named read-outs stand apart in the source and are kept apart here.

Legend:
[1] = system: Influenza A H5N1 VN/1203/2004 Hybrid (on H1N1 backbone); experiment: microbe, parasite or virus in culture; format: cell-based; details: Influenza A virus
[2] = system: Influenza A H5N1 VN/1203/2004 Hybrid (on H1N1 backbone); experiment: microbe, parasite or virus in culture; format: cell-based; details: Influenza A virus, read-out: EC50, Visual CPE Assay

Nc1ncnc2c([C@@H]3N[C@H](CO)[C@@H](O)[C@H]3O)c[nH]c12 [compound 1, (2S,3S,4R,5R)-2-(4-Amino-5H-pyrrolo[3,2-d]pyrimidin-7-yl)-5-(hydroxymethyl)pyrrolidine-3,4-diol]
EC50 ([1]; MDCK, read-out: EC50, antiviral activity in MDCK cells): 0.99 µg/mL (≈ 3.73 µM)
EC50 ([1]; read-out: EC50, Neutral Red Uptake Assay): 0.99 µg/mL (≈ 3.73 µM)
EC50 [2]: 0.63 µg/mL (≈ 2.37 µM)
